Source: patent publication US4550186A, “Binuclear copper (II) carboxylates formed from amine-carboxyboranes” (Duke University, priority 1983, dated 1985)

What was measured:
[1] = tested on: Phosphatidate Phosphohydrolase; experiment: In vivo liver enzyme study: phosphatidate phosphohydrolase; set-up: species or system mouse; details: for Phosphatidate Phosphohydrolase: CF1 liver after 16 days i.p.
Protocol: In vitro enzymatic studies were determined using 10% homogenates of CF1 male mouse liver with 50-200 μM of test drugs. In vivo enzymatic studies were determined using 10% homogenates of liver from CF1 male mice obtained after administering the agents for 16 days at a dose ranging from 2.5-20 mg/kg/day intraperitoneally. The liver homogenates for both in vitro and in vivo studies were prepared in 0.25M sucrose and 0.001M (ethylenedinitrilo)tetraacetic acid. Acetyl coenzyme A synthetase and adenosine triphosphate dependent citrate lyase activities were determined spectrophotometrically at 540 nm as the hydroxylamate of acetyl coenzyme A formed after 30 min at 37° C. Mitochondrial citrate exchange was determined by the procedure of Robinson et al [Eur. J. Biochem., 216, 63 (1970)] using ^14 C-sodium bicarbonate (41 mCi/mmol) incorporated into mitochondrial ^14 C-citrate after isolating rat mitochondria (9000 g×10 min) from the homogenates. The exchanges of the ^14 C-citrate were determined after incubating the mitochondrial fraction which was loaded with labeled citrate and test drugs for 10 min. Then the radioactivity was measured in the mitochondrial and supernantant fractions in scintillation fluid and expressed as a percentage. Cholesterol side chain oxidation was determined by the method of Kritchevsky and Tepper [Artherosclerosis, 18, 93 (1973)] using (26-^14 C) cholesterol (50 mCi/mmol) and mitochondria isolated from rat liver homogenates. After 18 hr incubation at 37° C. with test drugs, the generated ^14 CO2 was trapped in the center well in {2-(2-(p-1,1,3,3,-tetramethylbutylcresoxy)ethoxy]ethyl } dimethylbenzylammonium hydroxide and counted. 3-Hydroxy-3-methylglutaryl coenzyme A reductase (HMG coenzyme A reductase) activity was measured using 1-^14 C-acetate (56 mCi/mmol) and a post-mitochondrial supernatant (9000 g×20 min) incubated for 60 min at 37° C. [Wada et al, J. Biochem. (Tokyo), 65 71 (1969)]. The digitonide derivative of cholesterol was isolated and counted. Acetyl coenzyme A carboxylase activity was measured by the method of Greenspan and Lowenstein [J. Biol. Chem., 243, 6273 (1968)]. […] Fatty acid synthetase activity was determined by the method of Brady et al [J. Biol. Chem., 235, 3093 (1960)] using [2-^14 C] malonyl-coenzyme A (37.5 mCi/mmol) which was incorporated into newly synthesized fatty acids that were extracted with ether and counted. Acyl transferase activity was determined with glycerol-3phosphate [L-2-^3 H(N)] […] HCl and counted. Phosphatidate phosphohydrolase activity was measured as the inorganic phosphate released after 30 min from phosphatidic acid by the method of Mavis et al [J. Lipid Res., 19, 467 (1978)]. The released inorganic phosphate after development with ascorbic acid and ammonium molybdate was determined at 820 nm. […]

[2] = target: phosphoribosyl pyrophosphate amidotransferase (Mus musculus, UniProt Q8CIH9); experiment: In vitro phosphoribosyl pyrophosphate amidotransferase activity; type: biochemical; details: read-out: ID50, Phosphoribosyl pyrophosphate amidotransferase activity
Protocol: CF1 male mice (~30 g) were implanted with 2×10^6 Ehrlich ascites tumor cells, intraperitoneally on Day 0. Compound I was suspended by homogenation in 0.05% polysorbate.80-water and administered intraperitoneally at 10 and 20 mg/kg for 9 days to determine its effectiveness for inhibition of tumor growth. Mice were sacrificed on Day 10, and the ascites fluid was collected from the peritoneal cavity. The volume and ascrit (packed cell volume) were determined for each animal and the percent inhibition of tumor growth was calculated. For the metabolic studies, mice were treated on Days 8 and 9 with 10 mg/kg of Compound I, intraperitoneally. […]
Carbamyl phosphate synthetase activity was determined using the reaction medium of Kalman et al [Am. […] Citrulline formed from ornithine was measured at 490 nm by the method of Archibald [J. Biol. Chem., 156, 121 (1944)]. […] The ^14 CO2 generated in 15 min was trapped in 1M KOH and counted. Thymidylate synthetase activity was determined using a post-mitochondrial supernatant (9000 g×10 min) and 5 μCi of 5-^3 H-deoxyuridine monophosphate (14 Ci/mmol) according to the method of Kampf et al [ J. Med. Chem., 19, 903 (1976)]. ^14 C-Formate incorporation into purines was determined by the method of Spassova et al [Biochem. Pharmacol., 25, 923 (1976)] using 0.5 μCi of ^14 C-formic acid (52.0 mCi/mmol). […] The Rf value for xanthine monophosphate was scraped and counted. […]

Sequence of phosphoribosyl pyrophosphate amidotransferase (Q8CIH9 12-517): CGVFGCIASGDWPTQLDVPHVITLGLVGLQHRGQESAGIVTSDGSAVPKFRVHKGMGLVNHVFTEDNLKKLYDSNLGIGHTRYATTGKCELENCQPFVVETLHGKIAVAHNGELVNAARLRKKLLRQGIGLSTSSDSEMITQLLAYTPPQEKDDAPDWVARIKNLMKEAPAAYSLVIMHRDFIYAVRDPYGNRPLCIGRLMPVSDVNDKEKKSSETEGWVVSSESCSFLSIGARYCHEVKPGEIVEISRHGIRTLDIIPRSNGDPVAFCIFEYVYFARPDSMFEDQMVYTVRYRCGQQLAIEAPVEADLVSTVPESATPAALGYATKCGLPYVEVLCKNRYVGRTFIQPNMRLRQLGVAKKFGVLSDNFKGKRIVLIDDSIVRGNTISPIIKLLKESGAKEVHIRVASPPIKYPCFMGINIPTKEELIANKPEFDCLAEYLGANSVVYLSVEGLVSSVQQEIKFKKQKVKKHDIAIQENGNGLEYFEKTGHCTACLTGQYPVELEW

{Cu[(CH3)3 N.BH2 CO2 ]2.(CH3)3 N.BH2 COOH} [Compound I]
Phosphatidate Phosphohydrolase ([1]; 2.5 mg/kg): 55 ± 5% of control | Phosphatidate Phosphohydrolase ([1]; 5.0 mg/kg): 53 ± 5% of control | Phosphatidate Phosphohydrolase ([1]; 10 mg/kg): 18% of control | Phosphatidate Phosphohydrolase activity reduction ([1]; in vivo, mice 16 days, 10 mg/kg/day): 82% | IC50 [2]: 523 µM
